Some test systems named below: Acinetobacter baumannii; Staphylococcus aureus; Yersinia ruckeri MT252; Bacillus subtilis 168 HT; Escherichia coli MG1655.
Common to all, as to test: ≥ marks a high value that may be exact or a test limit, other limits are often not marked, values filed in µg/mL are converted to µM
Test [1] relates to Escherichia coli ATCC 25922.
Test [2] relates to Pseudomonas aeruginosa ATCC 10662.
The test system of test [3] is Staphylococcus aureus ATCC 25923.
Test [4] has as its system Staphylococcus epidermidis ATCC 1435.
The subject of test [5] is Aeromonas salmonicida MT004.
Test [6] has as its system Aeromonas salmonicida MT423.
For test [7], the system named is Escherichia coli NCIMB 12260.
In test [8] the test system is Lactococcus garvieae MT2055.
In test [9] the test system is Lactococcus garvieae MT2291.
Test [10] concerns Vibrio anguillarum MT1741.
The test system of test [11] is Vibrio anguillarum MT1742.
Test [12] relates to Candida albicans ATCC 10231.
Test [13] concerns Cryptococcus neoformans ATCC 32045.
The test system of test [14] is Escherichia coli ATCC 2592.
Test [15] deals with Pseudomonas aeruginosa ATCC 10145.
The subject of test [16] is Staphylococcus aureus ATCC 33591.
In test [17] the test system is Listeria monocytogenes KCTC 19111.
Test [18] deals with Pseudomonas aeruginosa ATCC 15692.
Test [19] has as its system Salmonella typhimurium KCTC 1926.
The test system of test [20] is Staphylococcus epidermidis KCTC 1917.
Test [21] deals with Bacillus subtilis ATCC 6633.
In test [22] the test system is Salmonella enterica subsp. enterica serovar Enteritidis BNCC 103134.

Values after ≈ are worked out from the molar mass of the structure shown.

Broadly, the MIC is the lowest concentration found to suppress growth. The low end stands for inhibition by little substance, the high end for a need for much substance. Turning to `CC[C@H](C)[C@H](NC(=O)[C@H](Cc1cnc[nH]1)NC(=O)[C@H](Cc1cnc[nH]1)NC(=O)[C@H](Cc1ccccc1)NC(=O)[C@@H](N)Cc1ccccc1)C(=O)N[C@@H](Cc1ccccc1)C(=O)N[C@@H](CCCN=C(N)N)C(=O)NCC(=O)N[C@@H](CCCCN)C(=O)N[C@H](C(=O)N[C@@H](Cc1cnc[nH]1)C(=O)N[C@H](C(=O)NCC(=O)N[C@@H](CCCCN)C(=O)N[C@H](C(=O)N[C@H](C(=O)N[C@@H](Cc1cnc[nH]1)C(=O)N[C@@H](CCCN=C(N)N)C(=O)N[C@@H](CC(C)C)C(=O)N[C@H](C(=O)N[C@H](C(=O)NCC(N)=O)[C@@H](C)O)C(C)C)[C@@H](C)CC)[C@@H](C)O)C(C)C)C(C)C` [FFHHIFRGKVHVGKTIHRLVTG], the MIC with Acinetobacter baumannii came to 1.2 µM (≈ 3.1 µg/mL); in test [1], 1.2 µM (≈ 3.1 µg/mL); in [2], 9.66 µM (≈ 25 µg/mL); in [3] it was 1.2 µM (≈ 3.1 µg/mL); in the test with Staphylococcus aureus it was 2.4 µM (≈ 6.2 µg/mL); in test [4] it was 1.2 µM (≈ 3.1 µg/mL).

Take `CC[C@H](C)[C@H](NC(=O)CNC(=O)[C@H](CCCCN)NC(=O)[C@@H](NC(=O)[C@@H](NC(=O)[C@H](Cc1cnc[nH]1)NC(=O)[C@H](Cc1cnc[nH]1)NC(=O)[C@@H](NC(=O)[C@@H](N)Cc1ccccc1)[C@@H](C)CC)[C@@H](C)CC)[C@@H](C)CC)C(=O)N[C@@H](Cc1ccccc1)C(=O)N[C@@H](Cc1cnc[nH]1)C(=O)N[C@H](C(=O)NCC(=O)N[C@@H](CCCCN)C(=O)N[C@@H](CCSC)C(=O)N[C@H](C(=O)N[C@@H](Cc1cnc[nH]1)C(=O)N[C@@H](CO)C(=O)N[C@@H](C)C(=O)N[C@H](C(=O)N[C@@H](CC(N)=O)C(=O)N[C@@H](CCCN=C(N)N)C(=O)N[C@@H](CCCN=C(N)N)C(=O)N[C@@H](CCCN=C(N)N)C(=O)N[C@@H](Cc1cnc[nH]1)C(=O)O)[C@@H](C)CC)[C@@H](C)CC)[C@@H](C)CC` [FIHHIIKGIFHIGKMIHSAINRRRH]: the minimal inhibitory concentration (MIC) in test [5], in test [6], in [7], in test [8], in [9] and in test [10] was 0.528 µM (≈ 1.6 µg/mL) throughout. For the same molecule, the minimal inhibitory concentration (MIC) (in test [11]; against Yersinia ruckeri MT252) was 0.528 µM (≈ 1.6 µg/mL) throughout.

For `CC[C@H](C)[C@H](N)C(=O)N[C@@H](CCCCN)C(=O)N[C@H](C(=O)N[C@H](C(=O)N[C@@H](C)C(=O)N1CCC[C@H]1C(=O)N[C@@H](CCCCN)C(=O)N[C@@H](CCCCN)C(=O)N[C@H](C(=O)N[C@@H](CCCCN)C(=O)N[C@@H](CC(C)C)C(=O)O)[C@@H](C)CC)C(C)C)[C@@H](C)CC` [IKIVAPKKIKL], the MIC against Bacillus subtilis 168 HT and against Escherichia coli MG1655 was not below 102 µM each time.

Take `C[C@H](NC(=O)[C@H](Cc1ccccc1)NC(=O)[C@H](CCCCN)NC(=O)[C@H](CCCCN)NC(=O)[C@H](C)NC(=O)[C@H](Cc1ccccc1)NC(=O)[C@H](CCCCN)NC(=O)[C@H](CCCCN)NC(=O)[C@H](C)NC(=O)[C@H](Cc1ccccc1)NC(=O)[C@H](CCCCN)NC(=O)[C@H](CCCCN)NC(=O)[C@H](C)NC(=O)[C@H](Cc1ccccc1)NC(=O)[C@H](CCCCN)NC(=O)[C@H](CCCCN)NC(=O)[C@H](C)NC(=O)[C@H](Cc1ccccc1)NC(=O)[C@H](CCCCN)NC(=O)[C@H](CCCCN)NC(=O)[C@H](C)NC(=O)[C@H](Cc1ccccc1)NC(=O)[C@H](CCCCN)NC(=O)[C@H](CCCCN)NC(=O)[C@H](C)NC(=O)[C@H](Cc1ccccc1)NC(=O)[C@@H](N)CCCCN)C(=O)N[C@@H](CCCCN)C(=O)O` [KFAKKFAKKFAKKFAKKFAKKFAKKFAK]: the minimum inhibitory concentration (MIC) in test [12] was 33.5 µM (≈ 112 µg/mL); in test [13], 13.3 µM (≈ 44.5 µg/mL); in [14], 13.3 µM (≈ 44.5 µg/mL); in [15] it was 4.79 µM (≈ 16 µg/mL); in [16] it was not below 74.8 µM.

Take `NCCCC[C@H](NC(=O)[C@H](Cc1ccc(O)cc1)NC(=O)[C@H](Cc1c[nH]c2ccccc12)NC(=O)[C@H](CCCCN)NC(=O)[C@H](CCCCN)NC(=O)[C@H](Cc1ccc(O)cc1)NC(=O)[C@H](Cc1c[nH]c2ccccc12)NC(=O)[C@H](CCCCN)NC(=O)[C@H](CCCCN)NC(=O)[C@H](Cc1ccc(O)cc1)NC(=O)[C@H](Cc1c[nH]c2ccccc12)NC(=O)[C@H](CCCCN)NC(=O)[C@H](CCCCN)NC(=O)[C@H](Cc1ccc(O)cc1)NC(=O)[C@H](Cc1c[nH]c2ccccc12)NC(=O)[C@@H](N)CCCCN)C(N)=O` [KWYKKWYKKWYKKWYK]: the MIC in test [1] was found to be 1 µM (≈ 2.44 µg/mL); in test [17], 1 µM (≈ 2.44 µg/mL); in [18] it was 2 µM (≈ 4.88 µg/mL); in test [19], 2 µM (≈ 4.88 µg/mL); in test [3], 2 µM (≈ 4.88 µg/mL); in [20], 1 µM (≈ 2.44 µg/mL).

Regarding `C[C@@H](O)[C@H](NC(=O)[C@H](Cc1ccccc1)NC(=O)[C@H](CO)NC(=O)[C@@H](NC(=O)[C@@H]1CCCN1C(=O)[C@@H](N)Cc1c[nH]c2ccccc12)[C@@H](C)O)C(=O)O` [WPTSFT], the MIC in [21] is not below 300 µM; in [1], 200 µM (≈ 148 µg/mL); in test [22] it was not below 350 µM; in test [3], 300 µM (≈ 221 µg/mL).

The record behind these values is DBAASP.
